Assay results: ChEMBL document CHEMBL1142366, “Synthesis of pyrimidine and quinolone conjugates as a scaffold for dual inhibitors of HIV reverse transcriptase and integrase” (Bioorg Med Chem Lett, 2008)

Columns and labels:
[1] = Inhibition of HIV reverse transcriptase; parameters: species or system Human immunodeficiency virus
[2] = Inhibition of HIV integrase; parameters: species or system Human immunodeficiency virus
[3] = tested on: Human immunodeficiency virus; test: Antiviral activity against HIV by cell based assay; type: functional, organism-based; details: Human immunodeficiency virus 1

IC50 [1] [nM]	IC50 [2] [nM]	EC50 [3] [nM]	SMILES
3700	19000	2200	CC(C)c1c(Cc2ccccc2)n(COCc2ccc3c(c2)c(=O)c(C(=O)O)cn3CCO)c(=O)[nH]c1=O
190	35000	220	CC(C)c1c(Cc2ccccc2)n(COCc2ccc3[nH]cc(C(=O)O)c(=O)c3c2)c(=O)[nH]c1=O
2600	41000	210	CC(C)c1c(Cc2ccccc2)n(COCc2ccc3c(c2)c(=O)c(C(=O)O)cn3C)c(=O)[nH]c1=O
1100	51000	1500	CCn1cc(C(=O)O)c(=O)c2cc(COCn3c(Cc4ccccc4)c(C(C)C)c(=O)[nH]c3=O)ccc21
